Drawing on PubChem BioAssay (NCI), this text covers TGI and GI50 for 16 compounds.

The structures appear in SMILES notation. “And” between values parts separate entries of the source, which are not always exact repeats. Equal entries are not always repeated.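 48-hour exposure; five concentrations; linearly interpolated endpoints. GI50 marks 50% less growth. TGI is the concentration that stops growth completely.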 A value given as a limit tells only on which side of the number the result lay.

For one experiment, the system named is DU-145 prostate. Description: inhibition of tumour cell growth, NCI panel, 48 h.
Turning to `O=C(O)CS(=O)(=O)C(c1ccccc1)c1ccccc1`, the TGI is over 100 µM.

As for `C=C(C)[C@@H]1CC[C@]2(C(=O)NCCCN)CC[C@]3(C)[C@H](CC[C@@H]4[C@@]5(C)CC[C@H](O)C(C)(C)[C@@H]5CC[C@]43C)[C@@H]12`, the GI50 is 17.5 µM and the TGI turned out to be 37.1 µM.

With `O=C(Nc1cccc(Cl)c1)Nc1ncc(CCNc2ncnc3ccsc23)s1`, the GI50 is 4.59 µM and 2.74 µM; the TGI was 20.5 µM and > 10 µM.

Consider `CCOC(=O)Cc1c[nH]c(=S)[nH]c1=O`, for which the GI50 was over 100 µM and the TGI was over 100 µM.

In the case of `CCc1c(C)[nH]c(/C=C2\N=C(c3ccc[nH]3)C=C2OC)c1C`, the GI50 is 0.219 µM and the TGI worked out at 11 µM.

As to `CCc1ccc(NC(=O)Nc2c[nH]c3ccccc23)cc1`, the GI50 was over 34 µM and the TGI is over 51.5 µM.

Regarding `Nc1ncnc2sc(=S)c3c(c12)CCC3`, the GI50 was 19.1 µM and the TGI worked out at 57.4 µM.

Regarding `N=C(N)c1nn(C2OC(CO)C(O)C2O)c2nc[nH]c(=O)c12` (stereo not drawn), the GI50 was 0.196 µM and the TGI worked out at 0.78 µM.

The test system of another experiment is HOP-62 NSCLC. As to the kind of experiment: inhibition of tumour cell growth, NCI panel, 48 h.
Take `CCCN1C(=O)/C(=c2\sc3n(c2=O)C2C(NN=3)N(CC)C(=O)N2CC)c2ccccc21` (stereo not drawn): the GI50 is 0.562 µM and the TGI is 16 µM.

Regarding `CCn1c(-c2nonc2N)nc2cncc(C(=O)N3CCNCC3)c21`, the GI50 is over 25 µM and the TGI was over 25 µM.

As for `c1ccc2[nH]c(-c3ccc(N4CCN(c5ccc(-c6nc7ccccc7[nH]6)cc5)CC4)cc3)nc2c1`, the GI50 is 11.4 µM and the TGI came to 75.7 µM.

As for `CCN(CC)CCOc1ccc(C(=C(C)c2ccc(Cl)cc2)c2ccc(OCCN(CC)CC)cc2)cc1`, the GI50 was 0.995 µM and the TGI was 2.91 µM.

Consider `C[C@]12CC[C@H]3[C@@H](CCC4=CC(=O)CC[C@@H]43)[C@@H]1CC[C@@H]2OC(=O)N(CCCl)N=O`, for which the GI50 is 3.17 µM and the TGI stood at 26.1 µM.

As for `CC12CCC(=O)C=C1CCC1C2CCC2(C)C(C(=O)Cn3cnc4c(=S)nc[nH]c43)CCC12` (stereo not drawn), the TGI turned out to be 47.1 µM.

In the case of `CCc1ccc(NCc2cc(OC)c(OC)c(OC)c2)cc1`, the TGI is 52.4 µM and 35.5 µM.

Take `COc1cc2c(cc1OC)-c1ccc3cc4c(cc3c1N(CCN1CCCC1)C2)OCO4`: the GI50 is 0.376 µM and the TGI was 1.93 µM.

In turn, `O=C(O)CS(=O)(=O)C(c1ccccc1)c1ccccc1` returned a TGI of over 100 µM.

On to `C=C(C)[C@@H]1CC[C@]2(C(=O)NCCCN)CC[C@]3(C)[C@H](CC[C@@H]4[C@@]5(C)CC[C@H](O)C(C)(C)[C@@H]5CC[C@]43C)[C@@H]12`, for which the GI50 is 18.3 µM and the TGI worked out at 88.4 µM.

As to `O=C(Nc1cccc(Cl)c1)Nc1ncc(CCNc2ncnc3ccsc23)s1`, the GI50 is 2.37 µM and 1.41 µM; the TGI was 15.3 µM and > 10 µM.

On to `CCOC(=O)Cc1c[nH]c(=S)[nH]c1=O`, for which the GI50 is over 100 µM and the TGI is over 100 µM.

As to `CCc1c(C)[nH]c(/C=C2\N=C(c3ccc[nH]3)C=C2OC)c1C`, the GI50 is 0.25 µM and the TGI is 4.04 µM.

Turning to `CCc1ccc(NC(=O)Nc2c[nH]c3ccccc23)cc1`, the GI50 is 16.7 µM and the TGI is over 58.8 µM.

As to `Nc1ncnc2sc(=S)c3c(c12)CCC3`, the GI50 was 46.4 µM and the TGI was over 100 µM.

`N=C(N)c1nn(C2OC(CO)C(O)C2O)c2nc[nH]c(=O)c12` (stereo not drawn): the GI50 was 0.3 µM and the TGI was 1.14 µM.

Another experiment has as its system LOX IMVI melanoma. Description: inhibition of tumour cell growth, NCI panel, 48 h.
As for `CCCN1C(=O)/C(=c2\sc3n(c2=O)C2C(NN=3)N(CC)C(=O)N2CC)c2ccccc21` (stereo not drawn), the GI50 is 0.629 µM and the TGI came to 18.8 µM.

For the compound `CCn1c(-c2nonc2N)nc2cncc(C(=O)N3CCNCC3)c21`, the GI50 was over 25 µM and the TGI was over 25 µM.

As for `c1ccc2[nH]c(-c3ccc(N4CCN(c5ccc(-c6nc7ccccc7[nH]6)cc5)CC4)cc3)nc2c1`, the GI50 is over 100 µM and the TGI was over 100 µM.

As for `CCN(CC)CCOc1ccc(C(=C(C)c2ccc(Cl)cc2)c2ccc(OCCN(CC)CC)cc2)cc1`, the GI50 was 0.552 µM and the TGI amounted to 1.03 µM.

With `C[C@]12CC[C@H]3[C@@H](CCC4=CC(=O)CC[C@@H]43)[C@@H]1CC[C@@H]2OC(=O)N(CCCl)N=O`, the GI50 is 1.1 µM and the TGI was 23.9 µM.

The compound `CC12CCC(=O)C=C1CCC1C2CCC2(C)C(C(=O)Cn3cnc4c(=S)nc[nH]c43)CCC12` (stereo not drawn) registered a TGI of over 100 µM.

Take `CCc1ccc(NCc2cc(OC)c(OC)c(OC)c2)cc1`: the GI50 was 0.543 µM and 0.149 µM; the TGI is 25.7 µM and 43.8 µM.

Regarding `COc1cc2c(cc1OC)-c1ccc3cc4c(cc3c1N(CCN1CCCC1)C2)OCO4`, the GI50 was 0.309 µM and the TGI came to 1.39 µM.

`O=C(O)CS(=O)(=O)C(c1ccccc1)c1ccccc1`: the TGI is over 100 µM.

For `C=C(C)[C@@H]1CC[C@]2(C(=O)NCCCN)CC[C@]3(C)[C@H](CC[C@@H]4[C@@]5(C)CC[C@H](O)C(C)(C)[C@@H]5CC[C@]43C)[C@@H]12`, the GI50 is 25.5 µM and the TGI is over 100 µM.

With `O=C(Nc1cccc(Cl)c1)Nc1ncc(CCNc2ncnc3ccsc23)s1`, the GI50 was 1.38 µM and 1.2 µM; the TGI is over 43.9 µM.

Turning to `CCOC(=O)Cc1c[nH]c(=S)[nH]c1=O`, the GI50 was over 100 µM and the TGI is over 100 µM.

As to `CCc1c(C)[nH]c(/C=C2\N=C(c3ccc[nH]3)C=C2OC)c1C`, the GI50 was under 0.0328 µM.

Turning to `CCc1ccc(NC(=O)Nc2c[nH]c3ccccc23)cc1`, the GI50 was 25.8 µM and the TGI was over 50.2 µM.

Take `Nc1ncnc2sc(=S)c3c(c12)CCC3`: the GI50 was 31.8 µM and the TGI is over 100 µM.

Consider `N=C(N)c1nn(C2OC(CO)C(O)C2O)c2nc[nH]c(=O)c12` (stereo not drawn), for which the GI50 is 0.337 µM and the TGI worked out at 1.84 µM.
